Assay [1] relates to H460 lung carcinoma. The assay is described as follows: Cytotoxicity assay (MTT), 6 days. The class given is cell-based. The note with it: Homo sapiens, NCI-H460, 144 h, 6 days of treatment, read-out: Toxicity 6d (IC 50, μM) H460. The text has this: (§1) Four human tumoral cell lines, namely HCT116 colon adenocarcinoma, H460 lung carcinoma, MCF-7 and MDA-MB-231 breast carcinoma cell lines, and three immortalized but non tumorigenic cell lines, namely NIH3T3 mouse fibroblasts and human breast-derived MCF10-A and MRC-5 were purchased at ATCC and cultured according to their recommendations. In order to determine the cytotoxicity associated with one compound, a microculture tetrazolium assay (MTT), as described by Carmichael et al (Cancer Res, 1996) with modifications, was used. Briefly, 5.10^3 or 2.10^4 cells were seeded per well in 24-well plates 24 hours before drug addition. Cells were treated with 0, 1, 10, 17.5, 25 and 50 μM of compound solubilized in DMSO, adjusting the total volume of DMSO (Dimethylsulfoxide) to 1%. Forty-eight hours or 6 days after treatment, the medium was replaced by PBS containing 0.5 mg/ml MTT (Sigma) and cells were incubated for 3 more hours at 37° C. before solubilization of formazan crystals in 100% DMSO. Absorbance was measured using a spectrophotometer at a wavelength of 550 nm. Cell surviving fraction and 50% inhibitory concentration were calculated. All assays were performed in triplicate.

Assay [2] relates to MCF-7 breast carcinoma. The assay is described as follows: Cytotoxicity assay (MTT), 6 days. The note with it: Homo sapiens, MCF7, 144 h, 6 days of treatment, read-out: Toxicity 6d (IC 50, μM) MCF7. The class given is cell-based.
Description: as §1

The test system of assay [3] is MCF10-A. Nature of the assay: Cytotoxicity assay (MTT), 6 days. The format is cell-based. The following applies: Homo sapiens, MCF-10A, 144 h, 6 days of treatment, read-out: Toxicity 6d (IC 50, μM) MCF10-A.
Description: as §1

The test system of assay [4] is MDA-MB-231 breast carcinoma. The assay is described as follows: Cytotoxicity assay (MTT), 6 days. The note with it: Homo sapiens, MDA-MB-231, 144 h, 6 days of treatment, read-out: Toxicity 6d (IC 50, μM) MDA231. The format is cell-based.
Description: as §1

For assay [5], the system named is MRC-5. The assay is described as follows: Cytotoxicity assay (MTT), 6 days. The class given is cell-based. The following applies: Homo sapiens, MRC5, 144 h, 6 days of treatment, read-out: Toxicity 6d (IC 50, μM) MRC-5.
Description: as §1

The test system of assay [6] is NIH3T3 mouse fibroblasts. The assay is described as follows: Cytotoxicity assay (MTT), 6 days. The format is cell-based. The following applies: NIH3T3, 144 h, 6 days of treatment, read-out: Toxicity 6d (IC 50, μM) NIH3T3.
Description: as §1

Assay [7] relates to HCT116 colon adenocarcinoma. Nature of the assay: Cytotoxicity assay (MTT), 6 days. The class given is cell-based, human. The note with it: 6 days of treatment, read-out: Toxicity 6d (IC 50, μM) HCT116.
Description: as §1

Assay [8] concerns MDA-MB-231 cells. Nature of the assay: Matrigel invasion assay (Boyden chamber). The format is cell-based, human. The following applies: for Invasion: MDA-MB-231, Boyden chamber, matrigel. How it is done:
Chemoinvasion assay was performed in Boyden chamber as described by Albini et al (Cancer Res, 1987) with some modifications. Polycarbonate membranes with 8 μm pores were coated with matrigel (125 μg/cm^2) at room temperature for 48 h. Two hours before experiments, the matrix was […] with serum-free medium containing 0.1% BSA.
(§2) One day after seeding, 10^6 MDA-MB-231 cells were treated overnight with different concentrations of compounds (1, 10, 17.5, 25 and 50 μM). Cells were collected with Versene (Invitrogen), counted with trypan blue exclusion, rinsed twice in serum-free medium containing 0.1% BSA and resuspended in serum-free medium containing 0.1% BSA plus the appropriate concentration of compound. 10^5 treated cells were placed in the upper chamber. Medium containing 10% of FBS plus the appropriate concentration of compound was placed in the lower chamber as a chemoattractant. The Boyden chamber was incubated 6 hours at 37° C. before the cells were fixed and stained with Diff-Quick (Dade-Berhing). Cells on the upper part of the filters were removed using a cotton swab. Cells on the underside of the filters were visualised and counted under light microscope.

The test system of assay [9] is NIH3T3 cells. The assay is described as follows: Colony formation assay with constitutively activated Ras (RasV12) and Rac (RacV12). The class given is cell-based, mouse. Also on record: key to Colony formation: −: no effect of the compound was observed; +: an effect of the compound was observed. How it is done:
(§3) The impact of the compounds on Ras and Rac signaling pathways was analysed with two reporter systems described by Imler (Nature 1988) and Lin (Science, 1995) respectively on one hand, and by a colony formation assay in the presence of constitutively activated Ras (RasV12) and Rac (RacV12) on the other hand. For this latter experiment, fifty percent confluent NIH3T3 cells in a 10 cm diameter petri dish were transfected with 0.5 μg pSV2-RasV12 or 0.5 μg pEXV RacV12 plasmids plus 100 ng of pSV2-neomycin plasmid using Lipofectamine-Plus reagent (Invitrogen) according to the manufacturer's instructions. Forty-eight hours later, cells were trypsinised, splitted to ⅓, and incubated in the presence of complete medium supplemented with 400 μg/ml geneticin (Invitrogen) and different doses of compound (1, 10, 17.5, 25 and 50 μM) until emerging resistant clones appear (2-3 weeks). The medium was renewed every 3 days. Colonies with a minimum of 50 cells were counted after staining with Fuschin 2%.

Assay [10] concerns cell architecture. Nature of the assay: Cell architecture modification, phase contrast. Also on record: key: −: no effect of the compound was observed; +: an effect of the compound was observed. The format is cell-based.
For assay [11], the system named is MDA-MB-231 cells. Nature of the assay: Migration assay (Boyden chamber, non-coated filters). The class given is cell-based, human. The following applies: MDA-MB-231, Boyden chamber. The procedure: as §2
The migration assay was performed the same way, using non-coated filters.

Assay [12] concerns Ras. Nature of the assay: Ras-dependant signaling pathway analysis (reporter system). The class given is cell-based. Also noted: key: −: no effect of the compound was observed; +: an effect of the compound was observed. The procedure: as §3
Assay [13] relates to MDA231. Nature of the assay: Cytoskeleton analysis, actin staining (FITC-phalloidin). The class given is cell-based, human. The note with it: 24 h treatment. How it is done: Since major rearrangements of cytoskeleton are observed in tumor cells and since the small GTPases are known to regulate these events, analysis of actin cytoskeleton was performed. Subconfluent cells seeded onto coverslips were treated with different concentration of compound (1, 10, 17.5, 25 and 50 μM) or vehicle for 24 h, before being fixed in 4% formaldehyde for 15 min., permeabilized in 0.2% Triton X100 for 5 minutes and incubated in PowerBlock (Biogenex) for 10 min. Actin filaments were stained with 0.5 μg/ml fluorescein isothiocyanate (FITC)-labelled phalloidin for 1 hour. Analysis was performed using an inverted fluorescent microscope.

For assay [14], the system named is HCT116. Nature of the assay: Cell viability assay (MTT), Example 32. The class given is cell-based, human. The note with it: Homo sapiens, HCT-116, 144 h; day 6, 10% FBS. The procedure: FIG. 7: Antiproliferative effect of compounds on HCT116 (top) and MDA-MB-231 (bottom) cell lines measured by MTT viability assay. 2.5 10^3 (HCT116) or 7.5 10^3 (MDA-MB-231) cells were seeded in 48-well plates in growth medium containing 10% FBS, with or without various concentrations of test compounds. Cell cultures were fed every 3 days with the appropriate media. Cell viability was determined on day 6. Data were analyzed and IC50s were calculated from the dose-response curves using GraphPad Prism.
In order to determine one compound effect on cell viability, microculture tetrazolium assay (MTT) was performed as described by Carmichael et al., (1996) with modifications. Four human tumoral cell lines, namely HCT116 colon adenocarcinoma, H460 lung carcinoma, MCF-7 and MDA-MB-231 breast carcinoma cell lines, and 3 immortalized but non tumorigenic cell lines, namely NIH3T3 mouse fibroblasts and human breast-derived MCF10-A and human lung-derived MRC-5 were purchased at ATCC and cultured according to their recommendations. Briefly, 2.5 10^3 to 2 10^4 cells per well were seeded in 48-well plates 24 hours before drug addition. Cells were treated with 0 to 200 μM (11 concentrations) of compound solubilized in DMSO, adjusting the final concentration of DMSO to 1% in the well. Six days after treatment, the medium was replaced by PBS containing 0.5 mg/ml MTT (Sigma) and cells were incubated for 1-3 hours at 37° C. before solubilization of formazan crystals in 100% DMSO. Absorbance was measured using a spectrophotometer at a wavelength of 550 nm. Data was analyzed using the GraphPad Prism software (GraphPad Software, Inc., San Diego, USA), and IC50 (dose leading to 50% cell death) was calculated from the dose-response curves.

In assay [15] the test system is HCT116 cells. The assay is described as follows: Anchorage-independent cell growth assay in soft agar, Example 32. The note with it: 7 days. The format is cell-based, human. The procedure: FIG. 8: Effect of the treatment of HCT116 cells with the compounds on the size of the clones grown in soft agar. 5 10^3 cells were seeded in 24-well plates in 0.3% agar-containing medium supplemented with the designated amount of compounds. After 7 days of incubation at 37° C., pictures were taken of each well and were analyzed using the ImageJ image analysis software. In particular, clone size and number were calculated. The data were analyzed using GraphPad Prism, and IC50 was calculated.
In order to evaluate the effect of one compound on the capacity of tumour cells to grow without anchorage, HCT116 cells were seeded in soft agar. In contrast to microplate assays which average the drug's effects over an entire cell population, clonogenic assays offer the possibility of distinguishing cytotoxic agents (i.e., decreased colony number) from cytostatic agents (i.e., decreased colony size without decreased colony number; Murphy M. J. et al., 1996).
Briefly, 5 10^3 HCT116 cells were resuspended in 300 pi of complete medium containing 0.3% soft-agar (Difco) and different concentrations of compound (8 concentrations ranging from 0 to 30 μM). Cells were then poured on a solidified layer of medium containing 0.5% of soft agar plus the compound at the same concentration as in the upper layer. Cells were incubated for 7 days' at 37° C. before pictures of each well were taken using a phase contrast microscope (Nikon) and a digital camera (Nikon Coolpix 990). Pictures were subsequently analyzed using a free image analysis software from the NIH (ImageJ) allowing to determine clones size and number.
Data was analyzed using the GraphPad Prism software, and IC50 (dose leading to a 50% decrease of clone size or number) was calculated from dose-response curves. The ratio IC50 clone size/IC50 clone number was then calculated. When this ratio is equal to 1 (IC50 size=IC50 number), the compound is referred to as “cytotoxic”. When the ratio is close to 0 (IC50 size<<IC50 number), the compound is referred to as “cytostatic” (FIG. 6).

Read-outs that look alike come from different tables or passages of the source. Some results are limits rather than exact numbers.

With `C/C=C/c1oc(CO)cc(=O)c1OCCCCCOc1ccccc1CCC` [EH9301, (E)-6-(Hydroxymethyl)-2-(propen-1-yl)-3-[5-(2-propylphenyloxy)pentyloxy]-4H-pyran-4-one], the IC50 in assay [1] is 25 µM; in assay [2], 20 µM; in [3], over 50 µM; in assay [4], 25 µM; in [5], 35 µM; in [6], 50 µM. In addition, the IC50 in assay [7] (Homo sapiens, HCT-116, 144 h) worked out at 20 µM. The Invasion entry in assay [8] is “No effect”. Moreover, the Colony formation result in assay [9] is “−”. Besides, the “Cell architecture modification phase contrast” value in assay [10] is “−”. In addition, the Migration entry in assay [11] is “no effect”.
Regarding `O=C(NCc1ccccc1)c1cc(=O)c(OCCCCCOc2ccc(Cl)cc2)co1` [EH28900, N-Benzyl-5-[5-(4-Chlorophenyloxy)pentyloxy]-4-oxo-4H-pyran-2-carboxamide], the IC50 in [1] was 10 µM; in assay [2], 20 µM; in assay [3], 50 µM; in assay [4] it was 5 µM; in assay [6], 0.5 µM; in assay [7], 25 µM. Also, in assay [7] (Homo sapiens, HCT-116, 144 h), the IC50 is at most 15 µM. In addition, the “Small GTPases activities Ras” value in assay [12] was “−”. In addition, the “Cell architecture modification phase contrast” value in assay [10] is “−”.
As for `CCCc1cc(Cl)c(Cl)cc1OCCCCCOc1coc(CO)cc1=O` [EH30701, 5-[5-(4,5-Dichloro-2-propylphenyloxy)pentyloxy]-2-(hydroxymethyl)-4H-pyran-4-one], the IC50 was 15 µM in assay [1]; 20 µM in assay [2]; 15 µM in assay [4]; 8 µM in assay [7]; at most 15 µM in assay [7] (Homo sapiens, HCT-116, 144 h). In [8], the “concentration giving significant inhibition of invasive properties of MDA-MB-231 cells” value is 17.5 µM. The Invasion entry in [8] is reported as “Decrease”. Further, the “Cell architecture modification phase contrast” value in assay [10] is listed as “−”. Also, the “Cell architecture modification actin staining MDA231” value in assay [13] was “cell spreading”.
Regarding `O=c1cc(COC2CCCCO2)occ1OCCCCCn1ccc2cc(F)ccc21` (centres unmarked) [EHT 0533, 5-[5-(5-Fluoro-indol-1-yl)-pentyloxy]-2-(tetrahydro-pyran-2-yloxymethyl)-4H-pyran-4-one], the IC50 in assay [14] was 1.5 to 4 µM. In addition, the “IC50 anchorage-independent growth of HCT116 (clone size) in soft agar” value (shortened to “IC50 anchorage-independent growth”) in [15] is recorded as “micromolar range”.
`Cc1cc2ccccc2n1CCCCCOc1coc(COC2CCCCO2)cc1=O` (centres unmarked) [EHT 2427, 5-[5-(2-Methyl-indol-1-yl)-pentyloxy]-2-(tetrahydro-pyran-2-yloxymethyl)-4H-pyran-4-one]: the IC50 in assay [14] lay in the range of 1.5 to 4 µM. In addition, the “IC50 anchorage-independent growth” value in assay [15] is recorded as “micromolar range”.
Take `O=c1cc(COC2CCCCO2)occ1OCCCCCn1ccc2ccccc21` (centres unmarked) [EHT 7395, 5-(5-Indol-1-yl-pentyloxy)-2-(tetrahydro-pyran-2-yloxymethyl)-4H-pyran-4-one]: the IC50 in [14] was 1.5 to 4 µM. Moreover, in assay [15], the “IC50 anchorage-independent growth” value is on record as “micromolar range”.

The record behind these values is patent US20050054629A1, “Compounds and methods of treating cell proliferative diseases” (priority 2002, published 2005).
